Test results reported in ChEMBL document CHEMBL1909046, “DrugMatrix in vitro pharmacology data”.

How the values were obtained:
[1] = target: T1, 5-hydroxytryptamine receptor 1A (Rattus norvegicus, UniProt P19327); assay type: cell membranes, CHO-K1, Membrane; settings: cho-k1; also: in other assays of this panel Not Active means under 50% inhibition at 10 µM
T1 sequence (P19327 whole entry): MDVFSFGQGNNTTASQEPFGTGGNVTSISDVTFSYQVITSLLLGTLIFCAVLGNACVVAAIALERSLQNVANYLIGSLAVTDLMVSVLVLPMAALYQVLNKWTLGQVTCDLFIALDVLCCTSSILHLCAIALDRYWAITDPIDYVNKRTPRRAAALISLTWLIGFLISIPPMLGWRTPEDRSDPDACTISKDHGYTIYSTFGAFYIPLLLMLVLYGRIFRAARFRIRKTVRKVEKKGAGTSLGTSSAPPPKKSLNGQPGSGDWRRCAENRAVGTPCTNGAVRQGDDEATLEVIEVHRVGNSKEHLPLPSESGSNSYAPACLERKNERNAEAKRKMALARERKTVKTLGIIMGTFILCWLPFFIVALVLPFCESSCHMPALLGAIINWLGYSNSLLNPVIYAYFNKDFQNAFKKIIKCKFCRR

Androgen receptor = target: T2, Androgen receptor (Rattus norvegicus, UniProt P15207); also: in other assays of this panel Not Active means under 50% inhibition at 10 µM
T2 sequence (P15207 whole entry): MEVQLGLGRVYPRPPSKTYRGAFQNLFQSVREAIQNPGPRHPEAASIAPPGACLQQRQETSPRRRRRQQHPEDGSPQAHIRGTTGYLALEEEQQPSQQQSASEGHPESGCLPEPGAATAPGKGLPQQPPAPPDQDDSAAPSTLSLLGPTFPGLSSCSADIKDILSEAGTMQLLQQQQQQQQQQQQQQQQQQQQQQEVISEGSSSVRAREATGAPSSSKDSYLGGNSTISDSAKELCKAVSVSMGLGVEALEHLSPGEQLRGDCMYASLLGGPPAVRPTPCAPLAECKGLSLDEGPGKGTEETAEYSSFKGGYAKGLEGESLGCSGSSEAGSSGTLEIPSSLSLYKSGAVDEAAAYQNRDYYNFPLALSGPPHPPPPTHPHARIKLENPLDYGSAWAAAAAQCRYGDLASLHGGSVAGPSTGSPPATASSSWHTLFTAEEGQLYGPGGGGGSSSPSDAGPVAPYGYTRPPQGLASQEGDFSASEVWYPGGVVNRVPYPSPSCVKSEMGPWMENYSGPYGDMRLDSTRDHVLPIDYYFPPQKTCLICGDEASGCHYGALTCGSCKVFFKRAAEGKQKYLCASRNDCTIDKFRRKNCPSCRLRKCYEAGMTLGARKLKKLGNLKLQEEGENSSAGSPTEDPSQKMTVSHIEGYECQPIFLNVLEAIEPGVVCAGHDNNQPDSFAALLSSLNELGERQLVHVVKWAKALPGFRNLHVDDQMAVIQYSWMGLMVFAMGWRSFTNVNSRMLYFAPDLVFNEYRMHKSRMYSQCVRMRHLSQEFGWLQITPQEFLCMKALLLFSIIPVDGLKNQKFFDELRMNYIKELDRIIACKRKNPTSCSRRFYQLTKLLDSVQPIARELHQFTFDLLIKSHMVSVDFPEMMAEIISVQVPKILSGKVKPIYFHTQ

Cytochrome P450 2D6 = Cytochrome P450 2D6 (Homo sapiens, UniProt P10635); settings: bti-tn-5b1-4; also: in other assays of this panel Not Active means under 50% inhibition at 10 µM
[2] = target: cGMP-specific 3',5'-cyclic phosphodiesterase (Homo sapiens, UniProt O76074); assay: DRUGMATRIX: Phosphodiesterase PDE5 enzyme inhibition (substrate: [3H]cGMP + cGMP); assay type: tissue-based, Platelet; settings: platelet; Not Active = under 50% inhibition at 10 µM
[3] = target: Tyrosine-protein kinase Lck (Homo sapiens, UniProt P06239); assay: DRUGMATRIX: Protein Tyrosine Kinase, LCK enzyme inhibition (substrate: Poly(Glu:Tyr)); assay type: cell-based, Insect cells; settings: insect cells; Not Active = under 50% inhibition at 10 µM
[4] = DRUGMATRIX: Serotonin (5-Hydroxytryptamine) 5-HT3 radioligand binding (ligand: [3H] GR-65630); assay type: cell membranes, Membrane; settings: hek293; Not Active = under 50% inhibition at 10 µM
Melanocortin receptor 4 = Melanocortin receptor 4 (Homo sapiens, UniProt P32245); assay type: cell membranes, Membrane; settings: hek293; also: in other assays of this panel Not Active means under 50% inhibition at 10 µM
Calcitonin receptor = target: T3, Calcitonin receptor (Homo sapiens, UniProt P30988); assay type: cell membranes, Membrane; settings: t47d; also: in other assays of this panel Not Active means under 50% inhibition at 10 µM
T3 sequence (P30988 whole entry): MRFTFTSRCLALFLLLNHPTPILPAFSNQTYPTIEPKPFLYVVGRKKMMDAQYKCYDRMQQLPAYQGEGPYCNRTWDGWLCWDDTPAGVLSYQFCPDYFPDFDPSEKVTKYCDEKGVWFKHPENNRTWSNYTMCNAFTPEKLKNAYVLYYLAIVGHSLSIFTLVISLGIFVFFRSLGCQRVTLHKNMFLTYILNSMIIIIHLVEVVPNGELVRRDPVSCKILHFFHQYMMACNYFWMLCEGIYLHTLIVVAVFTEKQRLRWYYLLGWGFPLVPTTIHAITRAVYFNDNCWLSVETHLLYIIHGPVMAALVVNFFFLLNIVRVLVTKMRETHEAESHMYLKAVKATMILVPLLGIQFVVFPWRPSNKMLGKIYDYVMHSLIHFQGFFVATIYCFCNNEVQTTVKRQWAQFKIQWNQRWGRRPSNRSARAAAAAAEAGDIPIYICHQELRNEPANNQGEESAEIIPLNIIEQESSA

Vasopressin V1a receptor = Vasopressin V1a receptor (Homo sapiens, UniProt P37288); assay type: cell membranes, Membrane; settings: hek293; also: in other assays of this panel Not Active means under 50% inhibition at 10 µM
Chain of Vasopressin V1a receptor (P37288 whole entry): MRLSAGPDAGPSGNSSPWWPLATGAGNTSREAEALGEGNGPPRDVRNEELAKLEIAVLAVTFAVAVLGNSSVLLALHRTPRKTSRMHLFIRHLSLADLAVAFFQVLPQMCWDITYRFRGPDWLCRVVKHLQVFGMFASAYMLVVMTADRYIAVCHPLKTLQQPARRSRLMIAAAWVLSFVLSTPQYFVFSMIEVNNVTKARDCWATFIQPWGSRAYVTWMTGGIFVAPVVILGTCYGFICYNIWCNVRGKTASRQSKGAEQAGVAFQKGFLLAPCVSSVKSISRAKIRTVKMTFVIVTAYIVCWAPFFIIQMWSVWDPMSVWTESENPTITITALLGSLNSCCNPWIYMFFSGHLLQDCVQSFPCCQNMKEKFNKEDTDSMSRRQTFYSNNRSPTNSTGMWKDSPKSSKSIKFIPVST

Chain of Tyrosine-protein kinase Lck (P06239 whole entry): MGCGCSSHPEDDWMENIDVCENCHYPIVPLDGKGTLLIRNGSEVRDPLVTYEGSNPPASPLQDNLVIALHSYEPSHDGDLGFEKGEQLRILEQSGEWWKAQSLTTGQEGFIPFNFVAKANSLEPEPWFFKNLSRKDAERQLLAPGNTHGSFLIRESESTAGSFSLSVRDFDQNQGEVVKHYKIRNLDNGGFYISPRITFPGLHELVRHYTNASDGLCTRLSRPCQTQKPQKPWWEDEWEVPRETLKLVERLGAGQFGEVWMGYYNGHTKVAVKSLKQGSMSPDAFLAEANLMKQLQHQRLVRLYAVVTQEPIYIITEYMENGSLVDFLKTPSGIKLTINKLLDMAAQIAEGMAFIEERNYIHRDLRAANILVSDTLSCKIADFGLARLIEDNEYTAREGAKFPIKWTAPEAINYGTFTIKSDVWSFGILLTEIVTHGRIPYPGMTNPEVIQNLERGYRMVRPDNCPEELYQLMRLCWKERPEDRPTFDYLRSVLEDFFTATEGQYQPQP
Chain of Cytochrome P450 2D6 (P10635 whole entry): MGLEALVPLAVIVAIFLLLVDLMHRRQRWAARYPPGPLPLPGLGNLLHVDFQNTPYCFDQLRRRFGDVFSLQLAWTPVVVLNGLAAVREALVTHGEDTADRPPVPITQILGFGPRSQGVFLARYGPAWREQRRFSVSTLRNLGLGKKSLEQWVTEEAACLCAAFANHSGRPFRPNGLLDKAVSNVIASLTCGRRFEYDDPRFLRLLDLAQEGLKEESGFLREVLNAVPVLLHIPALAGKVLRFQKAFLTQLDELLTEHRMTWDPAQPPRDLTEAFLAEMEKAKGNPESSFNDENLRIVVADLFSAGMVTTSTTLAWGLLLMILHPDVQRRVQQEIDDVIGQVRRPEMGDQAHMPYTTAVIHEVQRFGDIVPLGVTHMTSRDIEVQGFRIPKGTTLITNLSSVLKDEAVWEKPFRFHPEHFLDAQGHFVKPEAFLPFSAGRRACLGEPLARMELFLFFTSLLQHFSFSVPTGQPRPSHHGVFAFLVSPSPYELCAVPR
Chain of Melanocortin receptor 4 (P32245 whole entry): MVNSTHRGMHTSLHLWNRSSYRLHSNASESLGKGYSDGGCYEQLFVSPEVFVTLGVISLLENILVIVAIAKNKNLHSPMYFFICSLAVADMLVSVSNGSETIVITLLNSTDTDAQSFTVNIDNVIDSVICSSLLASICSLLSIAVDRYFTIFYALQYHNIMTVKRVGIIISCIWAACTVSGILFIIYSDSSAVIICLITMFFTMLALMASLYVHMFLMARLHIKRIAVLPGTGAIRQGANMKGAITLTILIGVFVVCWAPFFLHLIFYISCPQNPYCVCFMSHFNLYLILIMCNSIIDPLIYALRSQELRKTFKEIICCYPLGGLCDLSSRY

CC1(C)S[C@@H]2[C@H](NC(=O)[C@H](N)c3ccc(O)cc3)C(=O)N2[C@H]1C(=O)O [AMOXICILLIN]
Not Active: IC50 [1] | IC50 (Androgen receptor) | IC50 (Cytochrome P450 2D6) | Ki (Cytochrome P450 2D6) | IC50 [2] | IC50 [3] | IC50 [4] | Ki [4] | IC50 (Melanocortin receptor 4) | IC50 (Calcitonin receptor) | IC50 (Vasopressin V1a receptor)

N#C[C@H](O[C@@H]1O[C@H](CO[C@@H]2O[C@H](CO)[C@@H](O)[C@H](O)[C@H]2O)[C@@H](O)[C@H](O)[C@H]1O)c1ccccc1 [AMYGDALIN]
Not Active: IC50 [1] | IC50 (Androgen receptor) | IC50 (Cytochrome P450 2D6) | Ki (Cytochrome P450 2D6) | IC50 [2] | IC50 [3] | IC50 [4] | Ki [4] | IC50 (Melanocortin receptor 4) | IC50 (Calcitonin receptor) | IC50 (Vasopressin V1a receptor)

C=C1[C@@H]2CCC3[C@@](CC[C@@H]4[C@H](C(=O)O)C[C@@H](O[C@@H]5O[C@H](CO)[C@@H](OS(=O)(=O)[O-])[C@H](OS(=O)(=O)[O-])[C@H]5OC(=O)CC(C)C)C[C@@]34C)(C2)[C@@H]1O.[K+].[K+] (stereo not given in full) [ATRACTYLOSIDE]
Not Active: IC50 [1] | IC50 (Androgen receptor) | IC50 (Cytochrome P450 2D6) | Ki (Cytochrome P450 2D6) | IC50 [2] | IC50 [3] | IC50 [4] | Ki [4] | IC50 (Melanocortin receptor 4) | IC50 (Calcitonin receptor) | IC50 (Vasopressin V1a receptor)

OCc1ccccc1 [BENZYL ALCOHOL]
Not Active: IC50 [1] | IC50 (Androgen receptor) | IC50 (Cytochrome P450 2D6) | Ki (Cytochrome P450 2D6) | IC50 [2] | IC50 [3] | IC50 [4] | Ki [4] | IC50 (Melanocortin receptor 4) | IC50 (Calcitonin receptor) | IC50 (Vasopressin V1a receptor)

Brc1ccccc1 [BROMOBENZENE]
Not Active: IC50 [1] | IC50 (Androgen receptor) | IC50 (Cytochrome P450 2D6) | Ki (Cytochrome P450 2D6) | IC50 [2] | IC50 [3] | IC50 [4] | Ki [4] | IC50 (Melanocortin receptor 4) | IC50 (Calcitonin receptor) | IC50 (Vasopressin V1a receptor)

CC[C@@]1(O)C(=O)OCc2c1cc1n(c2=O)Cc2cc3ccccc3nc2-1 [CAMPTOTHECIN]
Not Active: IC50 [1] | IC50 (Androgen receptor) | IC50 (Cytochrome P450 2D6) | Ki (Cytochrome P450 2D6) | IC50 [2] | IC50 [3] | IC50 [4] | Ki [4] | IC50 (Melanocortin receptor 4) | IC50 (Calcitonin receptor) | IC50 (Vasopressin V1a receptor)

COCc1c(C(C)C)nc(C(C)C)c(/C=C/[C@@H](O)C[C@@H](O)CC(=O)O)c1-c1ccc(F)cc1 [CERIVASTATIN]
Not Active: IC50 [1] | IC50 (Androgen receptor) | IC50 (Cytochrome P450 2D6) | Ki (Cytochrome P450 2D6) | IC50 [2] | IC50 [3] | IC50 [4] | Ki [4] | IC50 (Melanocortin receptor 4) | IC50 (Calcitonin receptor) | IC50 (Vasopressin V1a receptor)

CCc1cccc2c3c([nH]c12)C(CC)(CC(=O)O)OCC3 (stereo not given) [ETODOLAC]
Not Active: IC50 [1] | IC50 (Androgen receptor) | IC50 (Cytochrome P450 2D6) | Ki (Cytochrome P450 2D6) | IC50 [2] | IC50 [3] | IC50 [4] | Ki [4] | IC50 (Melanocortin receptor 4) | IC50 (Calcitonin receptor) | IC50 (Vasopressin V1a receptor)

CN(C)[C@@H]1C(O)=C(C(N)=O)C(=O)[C@@]2(O)C(O)=C3C(=O)c4c(O)cccc4[C@@](C)(O)[C@H]3[C@H](O)[C@@H]12 [OXYTETRACYCLINE]
Not Active: IC50 [1] | IC50 (Androgen receptor) | IC50 (Cytochrome P450 2D6) | Ki (Cytochrome P450 2D6) | IC50 [2] | IC50 [3] | IC50 [4] | Ki [4] | IC50 (Melanocortin receptor 4) | IC50 (Calcitonin receptor) | IC50 (Vasopressin V1a receptor)

C=C(C)[C@@H]1[C@H]2OC(=O)[C@@H]1[C@]1(O)C[C@H]3O[C@]34C(=O)O[C@H]2[C@]14C [PICROTOXININ]
Not Active: IC50 [1] | IC50 (Androgen receptor) | IC50 (Cytochrome P450 2D6) | Ki (Cytochrome P450 2D6) | IC50 [2] | IC50 [3] | IC50 [4] | Ki [4] | IC50 (Melanocortin receptor 4) | IC50 (Calcitonin receptor) | IC50 (Vasopressin V1a receptor)
